These results are taken from patent US10246466B2, “Diaryl macrocycles as modulators of protein kinases” (TP THERAPEUTICS, INC., priority 2014, dated 2019).

For data set [1], the system named is T cell lymphoma Karpas-299 cell line (harboring endogenous NPM-ALK fusion gene). The data set can be described thus: Karpas-299 cell proliferation assay (CellTiter-Glo). Format: cell-based. Particulars: Homo sapiens, 72 hours incubation, read-out: Karpas 299 cell proli. IC50. For orientation: In ATP-based viability assays light output follows the ATP content of the culture.

The target in a further data set is ALK (Homo sapiens (Human), UniProt Q9UM73). The data set can be described thus: KINOMEscan kinase binding assay (DiscoveRx). On the procedure:
(§1) For most assays, kinase-tagged T7 phage strains were prepared in an E. coli host derived from the BL21 strain. E. coli were grown to log-phase and infected with T7 phage and incubated with shaking at 32° C. until lysis. The lysates were centrifuged and filtered to remove cell debris. The remaining kinases were produced in HEK-293 cells and subsequently tagged with DNA for qPCR detection. […] The liganded beads were blocked with excess biotin and washed with blocking buffer (SeaBlock (Pierce), 1% BSA, 0.05% Tween 20, 1 mM DTT) to remove unbound ligand and to reduce nonspecific binding. […] All reactions were performed in polystyrene 96-well plates in a final volume of 0.135 mL. […] The kinase concentration in the eluates was measured by qPCR.

For a further data set, the target named is JAK2 (Homo sapiens (Human), UniProt O60674). The data set can be described thus: KINOMEscan kinase binding assay (DiscoveRx). The procedure: as §1
The test system of data set [2] is Colorectal cell line KM12 (harboring endogenous TPM3-TRKA fusion gene). The data set can be described thus: KM12 cell proliferation assay (CellTiter-Glo). In kind it is cell-based. The note with it: Homo sapiens, 72 hours incubation, read-out: KM 12 cell prolif. IC50. The procedure:
Colorectal cell lines KM 12 (harboring endogenous TPM3-TRKA fusion gene) cells were cultured in DMEM medium, supplemented with 10% fetal bovine serum and 100 U/mL of penicillin/streptomycin. 5000 cells were seeded in 384 well white plate for 24 hours before compounds treatment. Cell proliferation was measured using CellTiter-Glo luciferase-based ATP detection assay (Promega) following the manufactures's protocol after 72 hours incubation. IC50 determinations were performed using GraphPad Prism software (GraphPad, Inc., San Diego, Calif.).
Alternatively: Colorectal cell line KM12 (harboring endogenous TPM3-TRKA fusion gene) cells were cultured in DMEM medium, supplemented with 10% fetal bovine serum and 100 U/mL of penicillin/streptomycin. […] 5000 cells were seeded in 384 well white plate for 24 hours before compounds treatment. Cell proliferation was measured using CellTiter-Glo luciferase-based ATP detection assay (Promega) following the manufactures's protocol after 72 hours incubation. IC50 determinations were performed using GraphPad Prism software (GraphPad, Inc., San Diego, Calif.).

For data set [3], the system named is Essential thrombocythemia cell line SET-2 cells (harboring endogenous JAK2 point mutation). In words: SET-2 cell proliferation assay (CellTiter-Glo). In kind it is cell-based. The note with it: Homo sapiens, 72 hours incubation, read-out: SET2 cell proli. IC50.
In another data set the target is TRKA (Homo sapiens (Human), UniProt P04629). In words: KINOMEscan kinase binding assay (DiscoveRx). On the procedure: (§2) Kinase binding assays were performed at DiscoveRx using the general KINOMEscan Kd Protocol (Fabian, M. A. et al., “A small molecule-kinase interaction map for clinical kinase inhibitors,” Nat. Biotechnol. 2005, 23(3):329-36). For most assays, kinase-tagged T7 phage strains were prepared in an E. coli host derived from the BL21 strain. E. coli were grown to log-phase and infected with T7 phage and incubated with shaking at 32° C. until lysis. The lysates were centrifuged and filtered to remove cell debris. The remaining kinases were produced in HEK-293 cells and subsequently tagged with DNA for qPCR detection. Streptavidin-coated magnetic beads were treated with biotinylated small molecule ligands for 30 minutes at room temperature to generate affinity resins for kinase assays. The liganded beads were blocked with excess biotin and washed with blocking buffer (SeaBlock (Pierce), 1% BSA, 0.05% Tween 20, 1 mM DTT) to remove unbound ligand and to reduce nonspecific binding. […] All reactions were performed in polystyrene 96-well plates in a final volume of 0.135 mL. […] The beads were then re-suspended in elution buffer (1×PBS, 0.05% Tween 20, 0.5 μM non-biotinylated affinity ligand) and incubated at room temperature with shaking for 30 minutes. The kinase concentration in the eluates was measured by qPCR.
TRKA, sequence (P04629 33-796): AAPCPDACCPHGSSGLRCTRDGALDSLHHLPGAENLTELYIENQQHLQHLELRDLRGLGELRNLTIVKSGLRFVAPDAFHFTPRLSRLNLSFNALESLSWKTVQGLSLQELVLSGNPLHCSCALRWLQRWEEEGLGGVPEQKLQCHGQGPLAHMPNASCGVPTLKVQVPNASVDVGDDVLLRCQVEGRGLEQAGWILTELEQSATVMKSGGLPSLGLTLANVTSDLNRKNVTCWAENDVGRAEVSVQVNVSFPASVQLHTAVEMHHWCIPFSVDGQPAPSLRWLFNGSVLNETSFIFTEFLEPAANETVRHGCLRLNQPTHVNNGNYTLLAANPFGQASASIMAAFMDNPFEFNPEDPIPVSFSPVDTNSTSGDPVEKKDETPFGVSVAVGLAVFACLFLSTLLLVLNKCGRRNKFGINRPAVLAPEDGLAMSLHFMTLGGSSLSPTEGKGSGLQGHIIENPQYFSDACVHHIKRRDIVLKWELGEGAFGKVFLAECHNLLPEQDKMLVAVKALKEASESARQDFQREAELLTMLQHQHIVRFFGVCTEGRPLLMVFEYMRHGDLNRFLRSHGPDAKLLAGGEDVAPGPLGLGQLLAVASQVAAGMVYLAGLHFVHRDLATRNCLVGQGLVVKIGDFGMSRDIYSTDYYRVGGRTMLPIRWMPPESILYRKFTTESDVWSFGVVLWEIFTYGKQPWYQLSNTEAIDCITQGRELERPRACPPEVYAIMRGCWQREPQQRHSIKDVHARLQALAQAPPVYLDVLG

Another data set has as its target ROS1 (Homo sapiens (Human), UniProt P08922). In words: KINOMEscan kinase binding assay (DiscoveRx). The procedure: as §2
The target in the next data set is JAK1 (Homo sapiens (Human), UniProt P23458). The data set can be described thus: KINOMEscan kinase binding assay (DiscoveRx). On the procedure:
as §2

The next data set deals with JAK3 (Homo sapiens (Human), UniProt P52333). In words: KINOMEscan kinase binding assay (DiscoveRx). The procedure:
as §2

For data set [4], the system named is Ba/F3-EML4-ALK wild type cell line. The data set can be described thus: EML4-ALK Ba/F3 cell proliferation assay (CellTiter-Glo). Format: cell-based. The note with it: 48 hours incubation. On the procedure:
The EML4-ALK wild-type gene (variant 1) was synthesized at GenScript and cloned into pCDH-CMV-MCS-EF1-Puro plasmid (System Biosciences, Inc). Ba/F3-EML4-ALK wild type cell line was generated by infecting Ba/F3 cells with lentivirus containing EML4-ALK wide-type. Stable cell lines were selected by puromycin treatment, followed by IL-3 withdrawal. 5000 cells were seeded in 384 well white plate overnight before compound treatment. Cell proliferation was measured using CellTiter-Glo luciferase-based ATP detection assay (Promega) following the manufactures's protocol after 48 hours of various concentration of compound incubation. IC50 determinations were performed using GraphPad Prism software (GraphPad, Inc., San Diego, Calif.).

The structures appear in SMILES notation.

JAK3, sequence (P52333 whole entry): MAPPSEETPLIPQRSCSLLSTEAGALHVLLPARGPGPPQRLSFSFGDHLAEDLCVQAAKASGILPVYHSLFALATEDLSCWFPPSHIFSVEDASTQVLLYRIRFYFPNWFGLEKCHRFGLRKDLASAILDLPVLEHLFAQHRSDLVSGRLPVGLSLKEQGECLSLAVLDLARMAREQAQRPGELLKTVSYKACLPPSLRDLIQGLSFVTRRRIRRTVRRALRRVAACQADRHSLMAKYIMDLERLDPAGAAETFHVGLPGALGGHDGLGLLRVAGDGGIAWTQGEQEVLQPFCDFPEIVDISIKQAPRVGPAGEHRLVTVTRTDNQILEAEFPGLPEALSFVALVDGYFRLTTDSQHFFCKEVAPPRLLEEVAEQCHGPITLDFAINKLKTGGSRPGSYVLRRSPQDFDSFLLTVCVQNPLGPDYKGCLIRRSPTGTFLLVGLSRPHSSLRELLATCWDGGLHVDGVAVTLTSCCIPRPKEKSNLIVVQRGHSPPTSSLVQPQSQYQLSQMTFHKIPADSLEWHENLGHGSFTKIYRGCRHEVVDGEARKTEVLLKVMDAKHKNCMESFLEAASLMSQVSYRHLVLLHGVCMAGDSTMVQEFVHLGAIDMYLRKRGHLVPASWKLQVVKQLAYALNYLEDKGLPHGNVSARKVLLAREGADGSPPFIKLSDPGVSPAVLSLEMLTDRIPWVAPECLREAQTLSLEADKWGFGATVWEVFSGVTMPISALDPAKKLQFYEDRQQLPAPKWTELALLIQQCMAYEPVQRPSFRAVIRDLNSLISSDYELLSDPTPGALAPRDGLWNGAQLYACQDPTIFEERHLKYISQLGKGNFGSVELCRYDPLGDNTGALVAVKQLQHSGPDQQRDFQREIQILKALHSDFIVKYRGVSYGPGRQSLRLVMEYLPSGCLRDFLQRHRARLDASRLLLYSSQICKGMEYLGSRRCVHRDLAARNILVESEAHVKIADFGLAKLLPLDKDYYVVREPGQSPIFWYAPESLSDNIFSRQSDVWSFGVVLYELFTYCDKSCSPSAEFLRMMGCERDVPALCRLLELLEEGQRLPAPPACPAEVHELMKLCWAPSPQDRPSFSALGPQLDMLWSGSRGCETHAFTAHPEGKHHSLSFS
ROS1, sequence (P08922 28-2347): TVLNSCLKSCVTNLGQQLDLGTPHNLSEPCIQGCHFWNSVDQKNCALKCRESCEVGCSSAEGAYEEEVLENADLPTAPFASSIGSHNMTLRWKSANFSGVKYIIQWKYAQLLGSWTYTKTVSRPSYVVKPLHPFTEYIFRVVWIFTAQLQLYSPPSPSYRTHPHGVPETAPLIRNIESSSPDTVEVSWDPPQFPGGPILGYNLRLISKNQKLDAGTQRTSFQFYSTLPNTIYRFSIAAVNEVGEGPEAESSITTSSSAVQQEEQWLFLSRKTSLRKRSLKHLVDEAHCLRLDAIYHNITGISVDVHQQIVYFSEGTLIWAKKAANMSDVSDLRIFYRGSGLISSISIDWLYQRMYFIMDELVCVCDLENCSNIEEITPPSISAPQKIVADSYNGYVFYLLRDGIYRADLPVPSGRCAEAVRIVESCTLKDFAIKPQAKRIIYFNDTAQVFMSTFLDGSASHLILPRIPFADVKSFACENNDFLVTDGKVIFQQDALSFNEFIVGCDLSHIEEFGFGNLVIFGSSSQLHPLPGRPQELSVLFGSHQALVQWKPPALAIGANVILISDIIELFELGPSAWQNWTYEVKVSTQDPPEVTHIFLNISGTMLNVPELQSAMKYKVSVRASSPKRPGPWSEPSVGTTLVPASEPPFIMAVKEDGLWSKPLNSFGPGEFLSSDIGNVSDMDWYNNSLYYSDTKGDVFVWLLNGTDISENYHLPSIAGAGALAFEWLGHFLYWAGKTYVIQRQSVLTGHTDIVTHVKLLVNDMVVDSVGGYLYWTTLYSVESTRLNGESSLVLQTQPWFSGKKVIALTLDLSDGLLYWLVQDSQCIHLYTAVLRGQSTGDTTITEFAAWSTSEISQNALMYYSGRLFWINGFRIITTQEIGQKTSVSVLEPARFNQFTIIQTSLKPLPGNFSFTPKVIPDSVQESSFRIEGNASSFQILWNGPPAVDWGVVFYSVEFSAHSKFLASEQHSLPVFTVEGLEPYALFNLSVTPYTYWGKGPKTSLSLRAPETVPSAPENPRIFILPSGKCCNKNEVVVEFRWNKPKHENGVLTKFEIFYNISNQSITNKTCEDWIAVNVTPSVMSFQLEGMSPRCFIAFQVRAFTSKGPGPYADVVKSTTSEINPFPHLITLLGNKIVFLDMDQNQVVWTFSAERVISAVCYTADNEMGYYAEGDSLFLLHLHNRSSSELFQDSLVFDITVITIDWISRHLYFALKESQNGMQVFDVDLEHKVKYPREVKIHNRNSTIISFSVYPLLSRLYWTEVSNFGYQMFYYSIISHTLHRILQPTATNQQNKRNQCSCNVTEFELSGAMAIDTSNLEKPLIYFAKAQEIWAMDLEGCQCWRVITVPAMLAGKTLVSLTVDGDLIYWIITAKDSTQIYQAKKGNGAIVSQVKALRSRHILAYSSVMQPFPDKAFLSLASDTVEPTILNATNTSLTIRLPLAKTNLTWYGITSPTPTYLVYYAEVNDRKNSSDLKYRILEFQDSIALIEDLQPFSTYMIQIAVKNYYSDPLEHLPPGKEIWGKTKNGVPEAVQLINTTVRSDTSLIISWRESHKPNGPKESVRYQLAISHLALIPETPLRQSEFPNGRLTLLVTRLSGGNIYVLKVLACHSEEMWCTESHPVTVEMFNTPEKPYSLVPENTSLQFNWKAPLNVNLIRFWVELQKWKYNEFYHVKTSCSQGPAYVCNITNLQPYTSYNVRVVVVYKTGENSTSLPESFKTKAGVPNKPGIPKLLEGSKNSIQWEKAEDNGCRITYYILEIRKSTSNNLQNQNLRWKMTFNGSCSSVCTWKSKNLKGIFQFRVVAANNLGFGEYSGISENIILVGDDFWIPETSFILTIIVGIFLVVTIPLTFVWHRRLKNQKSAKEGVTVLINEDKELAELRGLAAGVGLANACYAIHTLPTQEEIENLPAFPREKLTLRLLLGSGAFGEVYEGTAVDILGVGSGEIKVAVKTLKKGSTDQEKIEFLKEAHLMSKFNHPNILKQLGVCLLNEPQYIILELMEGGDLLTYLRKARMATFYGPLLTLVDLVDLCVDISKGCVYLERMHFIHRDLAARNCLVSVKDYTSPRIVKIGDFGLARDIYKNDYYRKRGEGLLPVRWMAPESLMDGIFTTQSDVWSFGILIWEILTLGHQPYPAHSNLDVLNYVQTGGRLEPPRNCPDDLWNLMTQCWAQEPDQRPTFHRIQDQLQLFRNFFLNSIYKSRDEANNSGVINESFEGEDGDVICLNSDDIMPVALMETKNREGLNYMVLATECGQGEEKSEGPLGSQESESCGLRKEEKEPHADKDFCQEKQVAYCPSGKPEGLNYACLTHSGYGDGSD

Regarding `O=C1NCCCOc2ccc(F)cc2CCc2ccn3ncc1c3n2` [Example 103, 12-fluoro-5,6,7,8,14,15-hexahydro-4H-1,16-ethenopyrazolo[4,3-g][1,5,9]benzoxadiazacyclotetradecin-4-one], the IC50 (commonly the concentration at which inhibition is half-maximal) in [1] was 1960 nM; in data set [2], 15 nM; in data set [3] it was more than 10000 nM. Besides, the Kd (as a rule, the free concentration of one partner at which half of the binding sites on the other are occupied at equilibrium, for simple one-to-one binding) at ALK amounted to 28 nM; at JAK2, 1.9 nM.

As for `CN1Cc2c(ccc(F)c2Cl)OCCNC(=O)c2cnn3ccc1nc23` [Example 39, 12-chloro-11-fluoro-14-methyl-6,7,13,14-tetrahydro-1,15-ethenopyrazolo[4,3-f][1,4,8,10]benzoxatriazacyclotridecin-4(5H)-one], the results for the IC50 in data set [1], in data set [2] and in data set [3] were 3800 nM, 3.8 nM and 8800 nM, respectively. Further, the Kd on ALK worked out at 180 nM; at JAK2, 27 nM; on TRKA, 0.23 nM; at ROS1 it was 4.7 nM.

Regarding `CC1Nc2ccn3ncc(c3n2)C(=O)NCCOc2ccc(F)cc21` (stereo not drawn) [Example 51, 11-fluoro-13-methyl-6,7,13,14-tetrahydro-1,15-ethenopyrazolo[4,3-f][1,4,8,10]benzoxatriazacyclotridecin-4(5H)-one], the IC50 was found to be 832 nM in data set [1], 3.2 nM in data set [2] and 425 nM in data set [3]. Also, the Kd came to 0.15 nM at JAK2, 65 nM at JAK1, 0.065 nM at TRKA and 4.3 nM at JAK3.

As for `CN1Cc2cc(F)ccc2OCCCNC(=O)c2cnn3ccc1nc23` [Example 75, 12-fluoro-15-methyl-5,6,7,8,14,15-hexahydro-4H-1,16-ethenopyrazolo[4,3-g][1,5,9,11]benzoxatriazacyclotetradecin-4-one], the results for the IC50 in [1], in data set [2] and in data set [3] were 3900 nM, 0.6 nM and 4440 nM, respectively. Besides, the Kd at JAK2 is 6.5 nM; at TRKA it was 0.015 nM.

Take `C[C@@H]1CNC(=O)c2cnn3ccc(nc23)N[C@H](C)c2cc(F)ccc2O1` [Example 92, (7R,13R)-11-fluoro-7,13-dimethyl-6,7,13,14-tetrahydro-1,15-ethenopyrazolo[4,3-f][1,4,8,10]benzoxatriazacyclotridecin-4(5H)-one]: the IC50 is 88.7 nM in data set [1], 0.3 nM in data set [2] and 142 nM in [3]. For the same molecule, the “EML4-ALK Ba/F3 cell proli. TC50” value in data set [4] is recorded as 78.6 nM.

`Cc1nn2ccc3nc2c1C(=O)NCCOc1ccc(F)cc1CN3C` [Example 40, 11-fluoro-3,14-dimethyl-6,7,13,14-tetrahydro-1,15-ethenopyrazolo[4,3-f][1,4,8,10]benzoxatriazacyclotridecin-4(5H)-one]: the half-maximal inhibitory concentration (IC50) was more than 10000 nM in data set [1], 204 nM in [2] and more than 10000 nM in [3]. Further, the Kd at ALK came out at 600 nM; on ROS1, 410 nM.

With `C[C@H]1CNC(=O)c2cnn3ccc(nc23)N[C@H](C)c2cc(F)ccc2O1` [Example 93, (7S,13R)-11-fluoro-7,13-dimethyl-6,7,13,14-tetrahydro-1,15-ethenopyrazolo[4,3-f][1,4,8,10]benzoxatriazacyclotridecin-4(5H)-one], the “EML4-ALK Ba/F3 cell proli. TC50” value in data set [4] was found to be 21.1 nM. In addition, the figures for the IC50 in data set [2] and in data set [3] were 0.5 nM and 242 nM, respectively.

As for `CCN1Cc2cc(F)ccc2OCCNC(=O)c2cnn3ccc1nc23` [Example 43, 14-ethyl-11-fluoro-6,7,13,14-tetrahydro-1,15-ethenopyrazolo[4,3-f][1,4,8,10]benzoxatriazacyclotridecin-4(5H)-one], the IC50 in data set [1] was found to be 2800 nM; in [2] it was 2.6 nM; in data set [3], 1700 nM. Moreover, the Kd on JAK2 turned out to be 3.7 nM; at TRKA, 0.086 nM.

As to `CC(C)N1Cc2cc(F)ccc2OCCNC(=O)c2cnn3ccc1nc23` [Example 45, 11-fluoro-14-(propan-2-yl)-6,7,13,14-tetrahydro-1,15-ethenopyrazolo[4,3-f][1,4,8,10]benzoxatriazacyclotridecin-4(5H)-one], the IC50 in data set [1] is more than 10000 nM; in data set [2] it was 0.35 nM; in data set [3] it was 8000 nM. For the same molecule, the results for the Kd at JAK2 and on TRKA were 7.8 nM and 0.082 nM, respectively.

On to `O=C1NCCOc2ccc(F)cc2C(CO)Nc2ccn3ncc1c3n2` (stereo not drawn) [Example 98, 11-fluoro-13-(hydroxymethyl)-6,7,13,14-tetrahydro-1,15-ethenopyrazolo[4,3-f][1,4,8,10]benzoxatriazacyclotridecin-4(5H)-one], for which the IC50 in data set [1] was found to be 281 nM; in data set [2], 7.4 nM; in data set [3], 808 nM. Further, the Kd at ALK stood at 14 nM; on JAK2, 0.74 nM.

`CC1Oc2ccc3ncc(n3n2)C(=O)NCCOc2ccc(F)cc21` (stereo not drawn) [Example 41, 10-fluoro-8-methyl-15,16-dihydro-8H-3,6-ethenoimidazo[5,1-f][1,10,4,7,8]benzodioxatriazacyclotridecin-17(14H)-one]: the IC50 is 3900 nM in data set [1], 118 nM in data set [2] and 1500 nM in [3]. For the same molecule, the Kd on ALK was found to be 200 nM; on JAK2, 2.6 nM; on JAK1, 280 nM; on TRKA, 6 nM; at JAK3, 33 nM.

As to `C[C@H]1Nc2ccn3ncc(c3n2)C(=O)NCCOc2ccc(F)cc21` [Example 51-1, (13R)-11-fluoro-13-methyl-6,7,13,14-tetrahydro-1,15-ethenopyrazolo[4,3-f][1,4,8,10]benzoxatriazacyclotridecin-4(5H)-one], the values for the IC50 in [1], in [2] and in data set [3] were 289 nM, 1.3 nM and 234 nM, respectively. For the same molecule, the “EML4-ALK Ba/F3 cell proli. TC50” value in data set [4] turned out to be 248 nM. Further, the Kd at ALK amounted to 6.8 nM; at JAK2, 0.048 nM; on JAK1, 37 nM; on TRKA it was 0.051 nM; at ROS1 it was 0.73 nM; at JAK3, 1.8 nM.

As to `CC1Oc2ccn3ncc(c3n2)C(=O)NCCOc2ccc(F)c(Cl)c21` (stereo not drawn) [Example 11-1, 12-chloro-11-fluoro-13-methyl-6,7-dihydro-13H-1,15-ethenopyrazolo[4,3-f][1,10,4,8] benzodioxadiazacyclotridecin-4(5H)-one], the IC50 in [1], in [2] and in data set [3] was more than 10000 nM throughout. The values for the Kd at ALK, at TRKA and on ROS1 were more than 30000 nM, 1900 nM and 1900 nM, respectively.

Turning to `CC1Nc2ccn3ncc(c3n2)C(=O)NCCOc2ccc(F)c(Cl)c21` (stereo not drawn) [Example 52, 12-chloro-11-fluoro-13-methyl-6,7,13,14-tetrahydro-1,15-ethenopyrazolo[4,3-f][1,4,8,10]benzoxatriazacyclotridecin-4(5H)-one], the IC50 in [1] is 7800 nM; in data set [2], 52 nM; in [3], 3600 nM. Further, the Kd worked out at 270 nM at ALK, 6.5 nM at TRKA and 62 nM at ROS1.
